Reference: patent US7759366B2 (Sanofi-Aventis, priority 2006, dated 2010)

target: hCB1R (Homo sapiens, UniProt P21554); assay: In vitro functional assay (FLIPR, intracellular Ca2+) with recombinant HEK293 cells, CB1; format: cell-based; parameters: expressed in transfected cells; host or cells: HEK293; conditions: recombinant HEK293 cells expressing CB1 and Galpha16; 20 min preincubation, then reference agonist; Ca2+ change; read-out: hCB1R: FLIPR; IC50
Sequence (P21554 whole entry): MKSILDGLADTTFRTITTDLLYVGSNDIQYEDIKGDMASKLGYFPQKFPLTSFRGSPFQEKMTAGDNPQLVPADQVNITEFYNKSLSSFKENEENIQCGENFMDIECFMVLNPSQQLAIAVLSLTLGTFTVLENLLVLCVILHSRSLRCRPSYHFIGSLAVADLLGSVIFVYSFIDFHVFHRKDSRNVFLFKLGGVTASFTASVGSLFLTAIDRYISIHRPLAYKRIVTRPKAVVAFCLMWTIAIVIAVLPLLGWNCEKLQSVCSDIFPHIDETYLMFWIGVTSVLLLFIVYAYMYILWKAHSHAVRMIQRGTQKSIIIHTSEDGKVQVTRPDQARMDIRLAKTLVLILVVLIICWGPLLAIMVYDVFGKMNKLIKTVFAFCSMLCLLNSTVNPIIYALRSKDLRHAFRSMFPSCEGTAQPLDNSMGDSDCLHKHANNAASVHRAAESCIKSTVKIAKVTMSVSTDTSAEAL
Excerpt: In Vitro Functional Assays with Recombinant Cells:

Compound | IC50
CC1(C)C(=O)N(c2ccc(C#N)c(C(F)(F)F)c2)C(=O)N1Cc1ccccc1Nc1ccc(C#N)c(C(F)(F)F)c1 [Example 3, 4-{3-[2-(4-cyano-3-trifluoromethylphenylamino)benzyl]-4,4-dimethyl-2,5-dioxoimidazolidin-1-yl}-2-trifluoromethylbenzonitrile] | 22 nM
CC1(C)C(=O)N(c2ccc(C#N)c(C(F)(F)F)c2)C(=O)N1Cc1ccccc1Nc1ccc(Cl)cc1 [Example 4, 4-{3-[2-(4-chlorophenylamino)benzyl]-4,4-dimethyl-2,5-dioxoimidazolidin-1-yl}-2-trifluoromethylbenzonitrile] | 4 nM
CC1(C)C(=O)N(c2ccc(C#N)c(C(F)(F)F)c2)C(=O)N1Cc1ccccc1Nc1ccc(S(C)(=O)=O)cc1Cl [Example 14, 4-{3-[2-(2-chloro-4-methylsulfonylphenylamino)benzyl]-4,4-dimethyl-2,5-dioxoimidazolidin-1-yl}-2-trifluoromethylbenzonitrile] | 108 nM
CC1(C)C(=O)N(c2ccc(C#N)c(C(F)(F)F)c2)C(=O)N1Cc1ccccc1Nc1ccc(Cl)c(Cl)c1 [Example 20, 4-{3-[2-(3,4-dichlorophenylamino)benzyl]-4,4-dimethyl-2,5-dioxoimidazolidin-1-yl}-2-trifluoromethylbenzonitrile] | 21 nM
CC1(C)C(=O)N(c2ccc(C#N)c(C(F)(F)F)c2)C(=O)N1Cc1ccccc1Nc1ccccc1Cl [Example 21, 4-{3-[2-(2-chlorophenylamino)benzyl]-4,4-dimethyl-2,5-dioxoimidazolidin-1-yl}-2-trifluoromethylbenzonitrile] | 10 nM
CC1(C)C(=O)N(c2ccc(C#N)c(C(F)(F)F)c2)C(=O)N1Cc1ccccc1Nc1cccc(Cl)c1 [Example 22, 4-{3-[2-(3-chlorophenylamino)benzyl]-4,4-dimethyl-2,5-dioxoimidazolidin-1-yl}-2-trifluoromethylbenzonitrile] | 46 nM
CC1(C)C(=O)N(c2ccc(C#N)c(C(F)(F)F)c2)C(=O)N1Cc1ccccc1Nc1ccc(C#N)cc1 [Example 33, 4-{3-[2-(4-cyanophenylamino)benzyl]-4,4-dimethyl-2,5-dioxoimidazolidin-1-yl}-2-trifluoromethylbenzonitrile] | 4 nM
CC1(C)C(=O)N(c2ccc(C#N)c(C(F)(F)F)c2)C(=O)N1Cc1c(Cl)cc(Cl)cc1Nc1ccc(F)cc1 [Example 35, 4-{3-[2,4-Dichloro-6-(4-fluorophenylamino)benzyl]-4,4-dimethyl-2,5-dioxoimidazolidin-1-yl}-2-trifluoromethylbenzonitrile] | 15 nM
CC1(C)C(=O)N(c2ccc(C#N)c(C(F)(F)F)c2)C(=O)N1Cc1c(Cl)cc(Cl)cc1Nc1ccc(Cl)cc1 [Example 37, 4-{3-[2,4-dichloro-6-(4-chlorophenylamino)benzyl]-4,4-dimethyl-2,5-dioxoimidazolidin-1-yl}-2-trifluoromethylbenzonitrile] | 21 nM
CC1(C)C(=O)N(c2ccc(C#N)c(C(F)(F)F)c2)C(=O)N1Cc1cc(Cl)cc(Cl)c1Nc1ccc(F)cc1 [Example 38, 4-{3-[3,5-Dichloro-2-(4-fluorophenylamino)benzyl]-4,4-dimethyl-2,5-dioxoimidazolidin-1-yl}-2-trifluoromethylbenzonitrile] | 70 nM
CC1(C)C(=O)N(c2ccc(C#N)c(C(F)(F)F)c2)C(=O)N1Cc1cc(Cl)cc(Cl)c1Nc1ccc(F)cc1F [Example 39, 4-{3-[3,5-dichloro-6-(2,4-difluorophenylamino)benzyl]-4,4-dimethyl-2,5-dioxoimidazolidin-1-yl}-2-trifluoromethylbenzonitrile] | 69 nM
CC1(C)C(=O)N(c2ccc(C#N)c(C(F)(F)F)c2)C(=O)N1Cc1cc(Cl)cc(Cl)c1Nc1ccc(Cl)cc1 [Example 40, 4-{3-[3,5-dichloro-6-(4-chlorophenylamino)benzyl]-4,4-dimethyl-2,5-dioxoimidazolidin-1-yl}-2-trifluoromethylbenzonitrile] | 30 nM
CC1(C)C(=O)N(c2ccc(C#N)c(C(F)(F)F)c2)C(=O)N1Cc1cc(Cl)ccc1Nc1ccc(F)cc1 [Example 41, 4-{3-[5-Chloro-2-(4-fluorophenylamino)benzyl]-4,4-dimethyl-2,5-dioxoimidazolidin-1-yl}-2-trifluoromethylbenzonitrile] | 28 nM
CC1(C)C(=O)N(c2ccc(C#N)c(C(F)(F)F)c2)C(=O)N1Cc1cccc(Cl)c1Nc1ccc(Cl)cc1 [Example 43, 4-{3-[5-chloro-6-(4-chlorophenylamino)benzyl]-4,4-dimethyl-2,5-dioxoimidazolidin-1-yl}-2-trifluoromethylbenzonitrile] | 77 nM
CC1(C)C(=O)N(c2ccc(C#N)c(C(F)(F)F)c2)C(=O)N1Cc1ccccc1Nc1ccccc1F [Example 44, 4-{3-[2-(2-fluorophenylamino)benzyl]-4,4-dimethyl-2,5-dioxoimidazolidin-1-yl}-2-trifluoromethylbenzonitrile] | 7 nM
CC1(C)C(=O)N(c2ccnc(C(F)(F)F)c2)C(=O)N1Cc1ccccc1Nc1ccccc1 [Example 65, 5,5-Dimethyl-1-(2-phenylaminobenzyl)-3-(2-trifluoromethylpyridin-4-yl)imidazolidine-2,4-dione] | 145 nM
COC(=O)c1ccc(Nc2ccccc2CN2C(=O)N(c3ccc(C#N)c(C(F)(F)F)c3)C(=O)C2(C)C)c(F)c1 [Example 72, methyl 4-{2-[3-(4-cyano-3-trifluoromethylphenyl)-5,5-dimethyl-2,4-dioxoimidazolidin-1-ylmethyl]phenylamino}-3-fluorobenzoate] | 24 nM
CC1(C)C(=O)N(c2ccc(C#N)c(C(F)(F)F)c2)C(=O)N1Cc1ccccc1Nc1ccc(C(=O)O)cc1F [Example 80, 4-{2-[3-(4-cyano-3-trifluoromethylphenyl)-5,5-dimethyl-2,4-dioxoimidazolidin-1-ylmethyl]phenylamino}-3-fluorobenzoic acid] | 33 nM
CC1(C)C(=O)N(c2ccc(C#N)c(C(F)(F)F)c2)C(=O)N1Cc1ccccc1Nc1ccc(N)c(F)c1 [Example 95, 4-{3-[2-(4-Amino-3-fluorophenylamino)benzyl]-4,4-dimethyl-2,5-dioxoimidazolidin-1-yl}-2-trifluoromethylbenzonitrile] | 31 nM
COC(=O)c1ccc(Nc2cc(Cl)cc(Cl)c2CN2C(=O)N(c3ccc(C#N)c(C(F)(F)F)c3)C(=O)C2(C)C)cc1 [Example 104, methyl 4-{3,5-dichloro-2-[3-(4-cyano-3-trifluoromethylphenyl)-5,5-dimethyl-2,4-dioxoimidazolidin-1-ylmethyl]phenylamino}benzoate] | 15 nM
CC1(C)C(=O)N(c2ccc(C#N)c(C(F)(F)F)c2)C(=O)N1Cc1c(Cl)cc(Cl)cc1Nc1ccc(C(=O)O)cc1 [Example 105, 4-{3,5-dichloro-2-[3-(4-cyano-3-trifluoromethylphenyl)-5,5-dimethyl-2,4-dioxoimidazolidin-1-ylmethyl]phenylamino}benzoic acid] | 49 nM
COC(=O)c1ccc(Nc2cc(C(F)(F)F)ccc2CN2C(=O)N(c3ccc(C#N)c(C(F)(F)F)c3)C(=O)C2(C)C)cc1 [Example 106, methyl 4-{2-[3-(4-cyano-3-trifluoromethylphenyl)-5,5-dimethyl-2,4-dioxoimidazolidin-1-ylmethyl]-5-trifluoromethylphenylamino}benzoate] | 12 nM
